# Results taken from patent publication US11548888B2, “KRas G12C inhibitors” (Mirati Therapeutics, Inc., priority 2019, dated 2023).
# Target: T1, KRas G12C (Homo sapiens, UniProt P01116, G12C)
# T1 construct: NCI-H358 cells (ATCC CRL-5807) express KRas G12C
# Assay: Inhibition of KRas G12C-dependent cell growth: Phospho-ERK in NCI-H358 cells
# Assay type: cell-based
# Settings: NCI-H358 cells expressing KRas G12C; Phospho-ERK (Thr202/Tyr204) normalized to GAPDH; 3 hours compound; 4 parameter fit
# Method in brief: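 NCI-H358 cells (KRas G12C) exposed to compounds for 3 h, 0.5% DMSO final. Fixed cells immunostained for pERK(Thr202/Tyr204) and GAPDH with infrared secondary antibodies. pERK normalized to GAPDH, expressed as percent of DMSO control; IC50 from 4-parameter dose-response fit.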
# T1 sequence (P01116 1-188 isoform P01116-2 G12C): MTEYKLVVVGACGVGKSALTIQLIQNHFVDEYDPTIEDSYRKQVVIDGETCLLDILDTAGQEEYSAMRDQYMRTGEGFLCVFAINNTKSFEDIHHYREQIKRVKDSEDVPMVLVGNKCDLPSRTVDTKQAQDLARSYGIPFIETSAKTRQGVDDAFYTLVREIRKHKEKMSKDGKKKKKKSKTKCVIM
row,IC50,Structure (SMILES)
1,10 µM,"C=CC(=O)N1CCN(c2ncnc3c(F)c(-c4c[n+]([O-])cc5ccccc45)ncc23)CC1 [Example 301, 4-(4-(4-acryloylpiperazin-1-yl)-8-fluoropyrido[4,3-d]pyrimidin-7-yl)isoquinoline 2-oxide]"
2,10 µM,"C=CC(=O)N1CCN(c2ncnc3c(F)c(-c4cccc5cc(C)ccc45)ncc23)CC1 [Example 302, 1-(4-(8-fluoro-7-(6-methylnaphthalen-1-yl)pyrido[4,3-d]pyrimidin-4-yl)piperazin-1-yl)prop-2-en-1-one]"
3,0.714 µM,"C=CC(=O)N1CC[C@@H]2[C@H]1CN2c1ncnc2c(F)c(-c3cccc4cccc(CC)c34)ncc12 [Example 303, 1-((1R, 5R)-6-(7-(8-ethylnaphthalen-1-yl)-8-fluoropyrido[4,3-d]pyrimidin-4-yl)-2,6-diazabicyclo[3.2.0]heptan-2-yl)prop-2-en-1-one]"
4,0.456 µM,"C=CC(=O)N1CC[C@@H]2[C@H]1CN2c1ncnc2c(F)c(-c3cccc4ccc(F)c(CC)c34)ncc12 [Example 304, 1-((1R,5R)-6-(7-(8-ethyl-7-fluoronaphthalen-1-yl)-8-fluoropyrido[4,3-d]pyrimidin-4-yl)-2,6-diazabicyclo[3.2.0]heptan-2-yl)prop-2-en-1-one]"
